Experiments:
[1] = test system: T cells in PBMC; experiment: T cell proliferation, Cell Trace Violet and flow cytometry; assay type: cell-based, Human; conditions: 6 days in the presence of IL-2
Description: FIG. 7. CD4 T cell proliferation after 6 days stimulation with compound 1, measured with proliferation dye Celltrace violet (Invitrogen) and flow cytometry. Untreated cells (UNT) or compound A were used as controls.
Study 6: PBMC were stimulated with compound 1 and cultured in RPMI media for 6 days in the presence of IL-2 (Miltenyi Biotechnologies) and Cell Trace Violet Dye (Invitrogen). Proliferation was measured with flow cytometry.

[2] = test system: PBMCs from CMV infected donors; experiment: IFN-gamma secretion from PBMCs of CMV infected donors with CMV antigen (cytometric bead assay); assay type: cell-based, Human; conditions: 3 days
Description: FIG. 9: Interferon-gamma secretion (as measured by cytometric bead assay) from PBMCs (from a CMV+ donor) grown with CMV peptides in the presence or absence of compound 1 or A for 5 days.
Study 8: PBMCs from CMV infected donors cultured in the presence of CMV antigen where either untreated or exposed to compound 1 or compound 2 for 3 days.

[3] = test system: CD11b+ splenocytes; experiment: MHC class I expression on CD11b+ splenocytes of mice after i.v. dosing; assay type: in vivo, C57bl/6 mice; conditions: spleen removed 24 h later
Description: FIG. 15: % MHC class I high CD11 b+ cells in spleen of 3 individual C57bl/6 mice injected 24 h previously with indicated compound. MHC class I and CD11b expression was measured by flow cytometry.
Study 14: Compound 1 or 2 was administered i.v. to C57bl/6 mice.

[4] = Body weight of mice after i.v. dosing; assay type: in vivo, C57bl/6 mice; conditions: 5 mg/kg group (not shown)
Description: Study 13: Compound 1 was administered i.v. to C57bl/6 mice at 0.165 mg/kg to 5 mg/kg. CD25+ cell abundance was increased in animals receiving the highest dose of 5 mg/kg (FIG. 14), as was body weight in the same group (not shown).

[5] = test system: E. coli, S. salivarius, L. casei, B. longum or M. luteus; experiment: Direct antibacterial activity, summary over all strains tested; assay type: cell-based; conditions: summary in words of Table 1
Description: The bioactivity of macrolide compounds against 4 strains of common gut bacteria (Escherichia coli, Streptococcus salivarius subsp. salivarius, Lactobacillus casei and Bifidobacterium longum subsp. infantis) and common mammalian skin isolate Micrococcus luteus, was assessed using the Minimum Inhibitory Concentration (MIC) assay. Bacterial strains were purchased from DSMZ (Brunswick, Germany) except M. luteus which was obtained from NCIMB, and stored in 20% glycerol at −80° C. Stock solutions (100% DMSO) of positive controls (azithromycin and erythromycin), and of test compounds 1 and 2 were diluted in broth to working stock concentrations of 256 μg/ml (final assay testing concentration range 128 μg/ml to 0.00391 μg/ml). Stock solutions of all other compounds were diluted in broth to working stock concentrations of 128 μg/ml (final assay testing concentration range 64 μg/ml to 0.00195 μg/ml). Bacterial strains were cultivated in appropriate broth in an anaerobic chamber at 37° C., except for M. luteus which was incubated aerobically at 37° C. 18 h cultures were diluted in broth to an OD595 of 0.1 and then further diluted 1:10. In 96-well plates, in duplicate, 200 μl working stock of test compound was transferred to well 1 and serially diluted (1:2) in broth. 100 μl bacterial suspension was aliquoted into each well and mixed thoroughly. Appropriate sterility controls were included and plates were incubated in an anaerobic chamber, or aerobically (M. luteus) at 37° C. for 18 h. The MIC was determined to be the concentration of test compound in the first well with no visible growth.

[6] = test system: CMV specific CD8+ T cells; experiment: CMV cultures: phenotype of CMV specific CD8+ T cells; assay type: cell-based, Human; conditions: CMV antigen, 6 days
Description: Human peripheral blood mononuclear cells (PBMCs) were purified from healthy CMV positive donors with Ficoll-Paque density centrifugation. The PBMC were labeled with 5 μM celltrace violet (Invitrogen) in PBS for 15 minutes and then washed with complete cell culture medium. The labeled PBMC was cultured in the presence of a peptide library spanning the CMV pp65 protein (1 μg peptide/ml, JPT) in AIM-V media (Invitrogen) supplemented with L-glutamine, Sodium pyruvate (Sigma), 10% fetal bovine serum, 100 μg/mL penicillin and 100 μg/mL streptomycin (Hyclone) for 6-8 days in 37° C., 5% CO2. Cell proliferation was assessed with flow cytomtery using a BD FACS Canto II flow cytometer.
Study 7: Virus specific T cell proliferation was also affected by compound 1. […] CD127 is crucial for T cell homeostasis, differentiation and function, and reduced expression correlates with disease severity in HIV and other chronic viral diseases (Crawley et al. 2012).

[7] = test system: PBMCs; experiment: Cytokine/chemokine secretion from PBMCs (cytometric bead assay); assay type: cell-based, Human; conditions: 2 days
Description: FIG. 11: Chemokine RANTES secretion (as measured by cytometric bead assay) from PBMC or macrophages stimulated with indicated compound for 48 h.
FIG. 12: IL12p70 secretion (as measured by cytometric bead assay) from PBMC or macrophages stimulated with indicated compound for 48 h.
FIG. 13: IL1b secretion (as measured by cytometric bead assay) from PBMC, macrophages or CD4 T cells stimulated with indicated compound for 48 h.
Study 10: PBMCs and macrophages where exposed to compounds 1 or 2 for 2 days (FIG. 11).
Study 11: PBMCs and macrophages where exposed to compounds 1 and 2 for 2 days.
Study 12: PBMCs, macrophages and CD4+ T cells where exposed to compounds 1 and 2 for 2 days.

[8] = test system: peripheral blood mononuclear cells (PBMC); experiment: Marker expression on PBMC by flow cytometry; assay type: cell-based, Human; conditions: 24 h
Description: Human peripheral blood mononuclear cells (PBMCs) were purified from healthy donors with Ficoll-Paque density centrifugation. Cells were cultured in complete RPMI-1640 media (Invitrogen) supplemented with 25 mM HEPES, L-glutamine, Sodium pyruvate (Sigma), 10% fetal bovine serum, 100 μg/mL penicillin and 100 μg/mL streptomycin (Hyclone) for 24-72 hours in 37° C., 5% CO2 and stimulated with and increasing concentrations of compound 1 and 2. Cells were then washed in PBS and stained with monoclonal antibodies specific for cell surface markers (BD Pharmingen) and analysed with flow cytomtetry using a BD FACS Canto II flow cytometer. All samples were tested in duplicates.
Human peripheral blood mononuclear cells (PBMCs) were purified from healthy donors with Ficoll-Paque density centrifugation. Cells were cultured in complete RPMI-1640 medium (Invitrogen) supplemented with 25 mM HEPES, L-glutamine, Sodium pyruvate (Sigma), 10% fetal bovine serum, 100 μg/mL penicillin and 100 μg/mL streptomycin (Hyclone). Cells were stimulated for 24 h (study 1-4) or 48 h to 1 week (study 5) in 37° C., 5% CO2 with increasing concentrations of compound 1 and 2 in tissue culture plates. The cells were removed from the plate, washed in PBS and analysed for expression of cell specific surface markers and MHC class I with flow cytomtery using monoclonal antibodies from BD Pharmingen and a FACS Canto II flow cytometer.

CC[C@H]1OC(=O)[C@H](C)[C@@H](O[C@H]2C[C@@H](N(C)C)[C@H](O)[C@@H](C)O2)[C@H](C)[C@@H](O)[C@](C)(O)C[C@@H](C)CN(C)[C@H](C)[C@@H](O)[C@]1(C)O [Compound 1]
cytokine driven proliferation of T cells [1]: altered cytokine driven proliferation profile | IFN-gamma secretion, PBMCs with CMV antigen [2]: induced secretion of high levels | splenocyte cells with high MHC I expression (CD11b+) [3]: induced an increase | body weight [4]: increased | antibacterial activity against the bacterial strains tested [5]: no antibacterial activity | expression of IL-7 receptor a (CD127) on activated CMV specific CD8+ T cells [6]: increased expression | IL-1beta secretion, PBMCs [7]: slightly | IL-12p70 secretion, PBMCs [7]: secreted IL-12p70 | RANTES expression, PBMCs [7]: twofold upregulation | activation marker CD69 on CD4+ T cells and B cells ([8]; 1 μM): upregulated | MHC class I (HLA-ABC) on T- and B-cells [8]: upregulation | MHC class II (HLA-DR) on monocytes [8]: upregulation | co-stimulatory molecule CD80 on monocytes [8]: upregulation

— patent publication US11059844B2, “Immune stimulating macrolides” (ISR IMMUNE SYSTEM REGULATION HOLDING AB (PUBL), priority 2017, dated 2021)
